These results are taken from ChEMBL document CHEMBL1201862, “PubChem BioAssay data set” (2004).

Some test systems named below: A498; A549; HCC 2998; HOP-92; HT-29; LXFL 529; M14; MOLT-4; NCI-H460; NCI-H522; RPMI-8226; SF-268; SF-539; SNB-75; UACC-62; UO-31; EKVX.
Common to all, as to assay: inhibition of tumour cell growth, NCI panel, 48 h

Structures are written as SMILES.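 Growth conditions: 96-well plates. Treatment: test compound, 48 hours, 5 concentrations. Analysis: linear interpolation between bracketing concentrations; unreached endpoints set to highest concentration. GI50 marks 50% less growth.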 Activity calls are given as the source filed them. Rule as the data show it: active = GI50 up to about 1.1 µM and inactive = higher.

With `O=C1C=C[C@@]23CC1C(O)C[C@H]2C=Cc1ccccc13` (stereo partly drawn), the GI50 with A498, with A549, in the assay with HCC 2998, in the assay with HOP-92, with HT-29 and with LXFL 529 was > 100 µM (inactive) in each case. For the same molecule, the GI50 in the assay on M14, in the assay on MOLT-4, with NCI-H460, in the assay on NCI-H522, with RPMI-8226 and in the assay on SF-268 was > 100 µM (inactive) throughout. Also, the GI50 is > 100 µM (inactive) in the assay with SF-539, 91.6 µM (inactive) in the assay on SNB-75, 34.8 µM (inactive) with UACC-62 and > 100 µM (inactive) in the assay on UO-31.
Take `COc1cc([C@H]2c3cc4c(cc3[C@H](NCc3ccc(F)cc3)C3COC(=O)[C@H]32)OCO4)cc(OC)c1O` (stereo partly drawn): the GI50 in the assay on A498 is 2.19 µM (inactive); with EKVX, 6.19 µM (inactive); in the assay on HCC 2998 it was 10.5 µM (inactive); with HOP-92, 2.57 µM (inactive); with HT-29, 11.2 µM (inactive); in the assay with LXFL 529 it was 16.3 µM (inactive). For the same molecule, the GI50 with M14 was 3.19 µM (inactive); with MOLT-4, 0.344 µM (active); with NCI-H460 it was 0.352 µM (active); in the assay on NCI-H522, 2.43 µM (inactive); in the assay on RPMI-8226, 2.31 µM (inactive); in the assay on SF-268, 6.18 µM (inactive). Moreover, the GI50 is 1.79 µM (inactive) with SF-539, 2.08 µM (inactive) in the assay with SNB-75, 1.56 µM (inactive) with UACC-62 and 4.13 µM (inactive) in the assay on UO-31.
In the case of `COc1ccc(-c2cnoc2-c2ccc(OC)c(OC)c2)cc1OC`, the GI50 is 1.6 µM (inactive) with A498; 3.02 µM (inactive) with A549; 1.31 µM (inactive) in the assay on EKVX; 1.05 µM (active) in the assay with HCC 2998; 2.67 µM (inactive) with HOP-92; 1.27 µM (inactive) in the assay with HT-29. The GI50 with LXFL 529 is 1.83 µM (inactive); in the assay with M14, 0.851 µM (active); with MOLT-4 it was 0.893 µM (active); with NCI-H460 it was 2.48 µM (inactive); in the assay with NCI-H522 it was 0.556 µM (active); in the assay on RPMI-8226, 1.54 µM (inactive). In addition, the GI50 with SF-268 was 2.32 µM (inactive); with SF-539, 1.2 µM (inactive); with SNB-75, 1.78 µM (inactive); in the assay with UACC-62 it was 0.406 µM (active); in the assay on UO-31 it was 4.46 µM (inactive).
Take `O=C(/C=C(\O)C(=O)O)/C=C(\O)c1ccc(Cl)cc1`: the GI50 in the assay on A498, in the assay with A549, in the assay with EKVX, in the assay with HCC 2998, in the assay on HOP-92 and with HT-29 was > 100 µM (inactive) each time. In addition, the GI50 with LXFL 529, in the assay on M14, in the assay on MOLT-4, with NCI-H460, in the assay with NCI-H522 and in the assay with RPMI-8226 was > 100 µM (inactive) throughout. The GI50 in the assay on SF-268, in the assay on SF-539, in the assay with SNB-75, in the assay with UACC-62 and in the assay on UO-31 was > 100 µM (inactive) in each case.
Consider `COC(=O)C(=O)C(C(=O)C=C(C)C)C(=O)C(=O)Nc1cc(C(F)(F)F)ccc1Cl` (stereo not drawn), for which the GI50 in the assay on A498, with A549, in the assay on EKVX, in the assay on HCC 2998, with HOP-92 and in the assay on HT-29 was > 100 µM (inactive) in each case. Also, the GI50 was > 100 µM (inactive) with LXFL 529; > 100 µM (inactive) in the assay on M14; > 100 µM (inactive) in the assay on MOLT-4; > 100 µM (inactive) in the assay on NCI-H460; 57.5 µM (inactive) with NCI-H522; 24.4 µM (inactive) in the assay with RPMI-8226. Besides, the GI50 with SF-268, in the assay on SF-539, in the assay on SNB-75, in the assay with UACC-62 and in the assay with UO-31 was > 100 µM (inactive) each time.
